Experiments:
A549 [1] = experiment: Cytotoxicity against human A549 cells after 24 to 72 hrs by MTT assay; assay type: functional, cell-based
Mus musculus [2] = experiment: Toxicity in BALB/cA nude mouse xenografted with human A549 cells assessed as mortality at 9 mg/kg, iv […]; assay type: organism-based; design: dose 9 mg/kg, route intravenous; details: in vivo
Mus musculus [3] = experiment: Toxicity in BALB/cA nude mouse xenografted with human A549 cells assessed as change in body weight at 9 mg/kg, iv once every seven days for three doses (reference value: 27.61 g); details: in vivo
A549 [4] = experiment: Antitumor activity against human A549 cells xenografted in BALB/cA nude mouse assessed as growth inhibition at 9 mg/kg, iv once every seven days for three doses relative to control; details: read-out: GI
A549 [5] = experiment: Ratio of navelbine IC50 to compound IC50 for human A549 cells; assay type: functional

Row | SMILES | IC50 (A549 [1]) | also measured
1 | CCCCC(=O)NC[C@@]1(O)[C@H](OC(C)=O)[C@]2(CC)C=CCN3CC[C@@]4(c5cc([C@@]6(C(=O)OC)C[C@@H]7C=C(CC)CN(Cc8c6[nH]c6ccccc86)C7)c(OC)cc5N(C)[C@@H]14)[C@@H]32 | 22.1 nM | –
2 | CCC1=C[C@@H]2CN(C1)Cc1c([nH]c3ccccc13)[C@@](C(=O)OC)(c1cc3c(cc1OC)N(C)[C@H]1[C@@](O)(CNC(=O)C(C)C)[C@H](OC(C)=O)[C@]4(CC)C=CCN5CC[C@]31[C@@H]54)C2 | 11.4 nM | –
3 | CCC1=C[C@@H]2CN(C1)Cc1c([nH]c3ccccc13)[C@@](C(=O)OC)(c1cc3c(cc1OC)N(C)[C@H]1[C@@](O)(CNC(=O)CC(C)C)[C@H](OC(C)=O)[C@]4(CC)C=CCN5CC[C@]31[C@@H]54)C2 | 22 nM | –
4 | CCC1=C[C@@H]2CN(C1)Cc1c([nH]c3ccccc13)[C@@](C(=O)OC)(c1cc3c(cc1OC)N(C)[C@H]1[C@@](O)(CNC(=O)C(C)(C)C)[C@H](OC(C)=O)[C@]4(CC)C=CCN5CC[C@]31[C@@H]54)C2 | 37 nM | –
5 | CCC1=C[C@@H]2CN(C1)Cc1c([nH]c3ccccc13)[C@@](C(=O)OC)(c1cc3c(cc1OC)N(C)[C@H]1[C@@](O)(CNC(=O)C4CC4)[C@H](OC(C)=O)[C@]4(CC)C=CCN5CC[C@]31[C@@H]54)C2.O=C(O)C(O)C(O)C(=O)O | 3 nM | Activity (Mus musculus [2]): Non-toxic; Activity (Mus musculus [3]): 26.53 g; inhibition in vivo at 9 mg/kg (A549 [4]): 18%; Ratio IC50 (A549 [5]): 3
6 | CCC(=O)NC[C@@]1(O)[C@H](OC(=O)CC)[C@]2(CC)C=CCN3CC[C@@]4(c5cc([C@@]6(C(=O)OC)C[C@@H]7C=C(CC)CN(Cc8c6[nH]c6ccccc86)C7)c(OC)cc5N(C)[C@@H]14)[C@@H]32 | 12 nM | –
7 | CCC1=C[C@@H]2CN(C1)Cc1c([nH]c3ccccc13)[C@@](C(=O)OC)(c1cc3c(cc1OC)N(C)[C@H]1[C@@](O)(CNC(=O)Cc4ccccc4)[C@H](OC(C)=O)[C@]4(CC)C=CCN5CC[C@]31[C@@H]54)C2 | 16.2 nM | –
8 | CCC1=C[C@@H]2CN(C1)Cc1c([nH]c3ccccc13)[C@@](C(=O)OC)(c1cc3c(cc1OC)N(C)[C@H]1[C@@](O)(CNC(=O)c4ccccc4)[C@H](OC(C)=O)[C@]4(CC)C=CCN5CC[C@]31[C@@H]54)C2.O=C(O)C(O)C(O)C(=O)O | 5 nM | Activity (Mus musculus [2]): Non-toxic; Activity (Mus musculus [3]): 24.6 g; inhibition in vivo at 9 mg/kg (A549 [4]): 43.5%
9 | CCC1=C[C@@H]2CN(C1)Cc1c([nH]c3ccccc13)[C@@](C(=O)OC)(c1cc3c(cc1OC)N(C)[C@H]1[C@@](O)(CNC(=O)c4ccc(C)cc4)[C@H](OC(C)=O)[C@]4(CC)C=CCN5CC[C@]31[C@@H]54)C2 | 15.3 nM | –
10 | CCC1=C[C@@H]2CN(C1)Cc1c([nH]c3ccccc13)[C@@](C(=O)OC)(c1cc3c(cc1OC)N(C)[C@H]1[C@@](O)(CNC(=O)c4cccc(C)c4)[C@H](OC(C)=O)[C@]4(CC)C=CCN5CC[C@]31[C@@H]54)C2 | 17.2 nM | –
11 | CCC1=C[C@@H]2CN(C1)Cc1c([nH]c3ccccc13)[C@@](C(=O)OC)(c1cc3c(cc1OC)N(C)[C@H]1[C@@](O)(CNC(=O)c4ccc(F)cc4)[C@H](OC(C)=O)[C@]4(CC)C=CCN5CC[C@]31[C@@H]54)C2 | 6.6 nM | –
12 | CCC1=C[C@@H]2CN(C1)Cc1c([nH]c3ccccc13)[C@@](C(=O)OC)(c1cc3c(cc1OC)N(C)[C@H]1[C@@](O)(CNC(=O)c4ccccc4F)[C@H](OC(C)=O)[C@]4(CC)C=CCN5CC[C@]31[C@@H]54)C2 | 7.3 nM | –
13 | CCC1=C[C@@H]2CN(C1)Cc1c([nH]c3ccccc13)[C@@](C(=O)OC)(c1cc3c(cc1OC)N(C)[C@H]1[C@@](O)(CNC(=O)c4c(F)cccc4F)[C@H](OC(C)=O)[C@]4(CC)C=CCN5CC[C@]31[C@@H]54)C2 | 7.9 nM | –
14 | CCC1=C[C@@H]2CN(C1)Cc1c([nH]c3ccccc13)[C@@](C(=O)OC)(c1cc3c(cc1OC)N(C)[C@H]1[C@@](O)(CNC(=O)c4cccc(OC)c4)[C@H](OC(C)=O)[C@]4(CC)C=CCN5CC[C@]31[C@@H]54)C2 | 6.3 nM | –
15 | CCC1=C[C@@H]2CN(C1)Cc1c([nH]c3ccccc13)[C@@](C(=O)OC)(c1cc3c(cc1OC)N(C)[C@H]1[C@@](O)(CNC(=O)c4ccc(OC)c(OC)c4)[C@H](OC(C)=O)[C@]4(CC)C=CCN5CC[C@]31[C@@H]54)C2 | 6.5 nM | –
16 | CCC1=C[C@@H]2CN(C1)Cc1c([nH]c3ccccc13)[C@@](C(=O)OC)(c1cc3c(cc1OC)N(C)[C@H]1[C@@](O)(CNC(=O)c4ccc(Cl)cc4)[C@H](OC(C)=O)[C@]4(CC)C=CCN5CC[C@]31[C@@H]54)C2 | 25.6 nM | –
17 | CCC1=C[C@@H]2CN(C1)Cc1c([nH]c3ccccc13)[C@@](C(=O)OC)(c1cc3c(cc1OC)N(C)[C@H]1[C@@](O)(CNC(=O)c4ccc(C(F)(F)F)cc4)[C@H](OC(C)=O)[C@]4(CC)C=CCN5CC[C@]31[C@@H]54)C2 | 20.7 nM | –
18 | CCC1=C[C@@H]2CN(C1)Cc1c([nH]c3ccccc13)[C@@](C(=O)OC)(c1cc3c(cc1OC)N(C)[C@H]1[C@@](O)(CNC(=O)c4ccc([N+](=O)[O-])cc4)[C@H](OC(C)=O)[C@]4(CC)C=CCN5CC[C@]31[C@@H]54)C2 | 41.1 nM | –
19 | CCC1=C[C@@H]2CN(C1)Cc1c([nH]c3ccccc13)[C@@](C(=O)OC)(c1cc3c(cc1OC)N(C)[C@H]1[C@@](O)(CNC(=O)c4ccco4)[C@H](OC(C)=O)[C@]4(CC)C=CCN5CC[C@]31[C@@H]54)C2.O=C(O)C(O)C(O)C(=O)O | 3.2 nM | Activity (Mus musculus [3]): 25.45 g; inhibition in vivo at 9 mg/kg (A549 [4]): 58%
20 | CCC1=C[C@@H]2CN(C1)Cc1c([nH]c3ccccc13)[C@@](C(=O)OC)(c1cc3c(cc1OC)N(C)[C@H]1[C@@](O)(CNC(=O)c4ccncc4)[C@H](OC(C)=O)[C@]4(CC)C=CCN5CC[C@]31[C@@H]54)C2 | 8.1 nM | –
21 | CCC1=C[C@@H]2CN(C1)Cc1c([nH]c3ccccc13)[C@@](C(=O)OC)(c1cc3c(cc1OC)N(C)[C@H]1[C@@](O)(CNC(C)=O)[C@H](OC(C)=O)[C@]4(CC)C=CCN5CC[C@]31[C@@H]54)C2 | 24.5 nM | –
22 | CCCC(=O)NC[C@@]1(O)[C@H](OC(C)=O)[C@]2(CC)C=CCN3CC[C@@]4(c5cc([C@@]6(C(=O)OC)C[C@@H]7C=C(CC)CN(Cc8c6[nH]c6ccccc86)C7)c(OC)cc5N(C)[C@@H]14)[C@@H]32 | 17.3 nM | –
23 | CCC(=O)NC[C@@]1(O)[C@H](OC(C)=O)[C@]2(CC)C=CCN3CC[C@@]4(c5cc([C@@]6(C(=O)OC)C[C@@H]7C=C(CC)CN(Cc8c6[nH]c6ccccc86)C7)c(OC)cc5N(C)[C@@H]14)[C@@H]32 | 15.6 nM | –
24 | CCC1=C[C@@H]2CN(C1)Cc1c([nH]c3ccccc13)[C@@](C(=O)OC)(c1cc3c(cc1OC)N(C)[C@H]1[C@@](O)(C(=O)OC)[C@H](OC(C)=O)[C@]4(CC)C=CCN5CC[C@]31[C@@H]54)C2 [VINORELBINE] | 9 nM | Activity (Mus musculus [2]): Non-toxic; Activity (Mus musculus [3]): 26.22 g; inhibition in vivo at 9 mg/kg (A549 [4]): 55.9%
